Results published in patent publication US20050209157A1, “Short bioactive peptides and methods for their use” (priority 2001, published 2005).
Like-named read-outs stand apart in the source and are kept apart here. No end group written: not given here.

Assays:
WI38 = conditions: MTT, 24 hours with peptide; normal fibroblast line
[1] = test system: clinical tobramycin resistant strain 960890198-3c; experiment: Activity against drug resistant strains; type: cell-based
Procedure: (§1) Peptides were assayed for their activity against tobramycin sensitive and resistant strains.

[2] = test system: tobramycin resistant (tr) Pseudomonas ATCC 13096; experiment: Activity against drug resistant strains; type: cell-based
Procedure: as §1

[3] = test system: tobramycin sensitive (ts) Pseudomonas ATCC 27853; experiment: Activity against drug resistant strains; type: cell-based; conditions: tobramycin sensitive strain
Procedure: as §1

[4] = test system: human red blood cells (RBC); experiment: in vitro; type: cell-based; conditions: hemolytic assay, concentration at 50% hemolysis, 1 hour at 37° C.
in vitro [5] = conditions: human, WI38 normal lung fibroblast cells
[6] = test system: yeast (Saccharomyces cerevisiae); experiment: Antimicrobial assay I, yeast assay in RPMI 1640; type: cell-based; conditions: RPMI 1640 media
[7] = test system: Pseudomonas aeruginosa ATCC 9027; experiment: Antimicrobial assay I, MIC by OD measurement; type: cell-based; conditions: 37° C. for 24 hours, absorbance 620 nm
[8] = test system: Staphylococcus aureus ATCC 6538; experiment: Antimicrobial assay I, MIC by OD measurement; type: cell-based; conditions: 37° C. for 24 hours, absorbance 620 nm
SW480 = experiment: Anti-cancer assay, MTT, LD50; type: cell-based; conditions: SW480 colon adenocarcinoma line, 24 hours with peptide
Text: (§2) Numbers are LD50 values (μg/mL).

H1299 = experiment: Anti-cancer assay, MTT, LD50; type: cell-based; conditions: 24 hours with peptide, lung large cell carcinoma
Text: as §2

PC3 = experiment: Anti-cancer assay, MTT, LD50; type: cell-based; conditions: 24 hours with peptide, prostate adenocarcinoma
Text: as §2

MCF7 = experiment: Anti-cancer assay, MTT, LD50; type: cell-based; conditions: for LD50 MCF7: MCF7 breast adenocarcinoma line, MTT, 24 hours with peptide; for MCF7 LD50: Table 41, lower part
Text: as §2

BMKC = experiment: Anti-cancer assay, MTT, LD50; type: cell-based; conditions: BMKC cloned melanoma line, 24 hours with peptide
Text: as §2

HeLaS3 = experiment: Anti-cancer assay, MTT, LD50; type: cell-based; conditions: 24 hours with peptide, cervical carcinoma
Text: as §2

in vitro [9] = type: cell-based, human; conditions: human, human red blood cells
Pseudomonas aeruginosa = experiment: Serum inactivation of peptides, serum MIC; type: cell-based; conditions: for MIC 30 min treatment: sheep serum 37° C. 30 minutes; for MIC 2 hr treatment: sheep serum 37° C. 2 hours
Procedure: Subsequently, the serum MICs against Pseudomonas aeruginosa were conducted to determine extent of serum inactivation of the peptides.

[10] = Solubility of peptides in sheep serum; type: physicochemical; conditions: sheep serum, […], 70% serum
P. aeruginosa H374 = type: cell-based, Pseudomonas aeruginosa; conditions: for FIC Index: 0.5 or less = synergy
Outline: (§3)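 Efflux-mutant strains were tested with two-fold serial dilutions of chloramphenicol or nalidixic acid, alone and with peptide held at ¼ of its own MIC.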

P. aeruginosa = type: cell-based, Pseudomonas aeruginosa; conditions: P. aeruginosa H744; MIC of nalidixic acid with peptide at ¼ MIC
Outline: as §3

P. aeruginosa H774 = type: cell-based, Pseudomonas aeruginosa; conditions: P. aeruginosa H744; nalidixic acid + peptide at ¼ MIC; 0.5 or less = synergy
Outline: as §3

[11] = test system: MCF7 line of breast cancer cells; conditions: for MCF7 LD50: agent alone; for Active agent LD50 on MCF7 cells: Total conc.: peptide plus tamoxifen concentration at LD50; for Active agent LD50 on MCF7 cells: Peptide conc.: peptide with tamoxifen, peptide concentration at LD50; for Active agent LD50 on MCF7 cells: Tamox. conc.: tamoxifen concentration at LD50 (peptide with tamoxifen; tamoxifen alone in its own line)
[12] = Leukocyte (WBC) inhibition, toxicity LD50; type: cell-based, human; conditions: male, human, human leukocytes (buffy coat cells, mostly PBMCs); Table 41, lower part
Procedure: In vitro viability of human leukocyte cells in the presence of different peptides at different concentrations was determined by an Alamar Blue protocol. Alamar Blue (Promega, Madison, Wis.) is an indicator dye, formulated to measure quantitatively the proliferation and cytotoxicity of the cells. The dye consists of an oxidation-reduction (redox) indicator that yields a calorimetric change and a fluorescent signal in response to cellular metabolic activity.
Assay protocol: Blood from a human was drawn and centrifuged at 1500 rpm for 15 minutes at room temperature. The buffy coat cells at the plasma-red blood cell interface were aspirated. Buffy coat cells (mainly lymphocyte cells) were then transferred into 15 ml centrifuge tubes containing 5 ml of RPMI-1640 medium+10% Fetal Bovine Serum (Gibco, Grand Island, N.Y.). Additional medium was added to the tubes to bring the volume up to 10 ml. The buffy coat suspension was then carefully layered on 5 ml of Histopaque (Sigma Chemical Co., St. Louis, Mo.) and centrifuged at 1500 rpm for 30 minutes at room temperature. The interface which is mostly PBMCs (peripheral mononuclear cells) was aspirated and transferred to a 15 ml conical centrifuge tube and, resuspended in 2 ml cold RPMI-1640 and brought up to 15 ml with cold RPMI-1640 medium. Cells were centrifuged at 1500 rpm for 10 minutes. The supernatant was then aspirated and discarded. The cell pellet was re-suspended in 1 ml of cold RPMI 1640 and brought up to 15 ml with RPMI medium. This step was repeated twice, except that in the last step, the cells were resuspended with 1 ml of cold RPMI-1640 medium and cell counts were performed with a hemocytometer according to the Sigma cell culture catalogue.
Pokewood mitogen was used as a control along with positive and negative controls. Negative control cells were killed with 70% methanol. Positive (+) control cells were incubated in RPMI medium (untreated). […] of AlamarBlue was added to the cells, and readings were taken after 24 hours, 48 hours, 72 hours, and 96 hours using a fluorimeter (excitation 544/transmission 590 nm).
In choosing a peptide for possible treatment of a given indication it is important to match the therapeutic activity and specificity of the peptide with its possible toxic properties.
The protocols for WBC and WI38 stimulation have been discussed above. The RBC protocol follows Table 24.

[13] = LD50 WI38, WI38 normal lung fibroblast line, MTT, 24 hours with peptide
[14] = pH 7, hemolytic assay, concentration at 50% hemolysis, 1 hour at 37° C., read-out: LD50
[15] = pH 7, Table 41, lower part, read-out: RBC LD50
[16] = WI38 LD50, Table 41, lower part

Substance | WI38 LD50 (WI38) | CC50 at 24 h (in vitro [5]; [13]) | yeast (MIC or MFC) [6] | paerug9027 (MIC) [7] | staph6538 (MIC) [8] | LD50 SW480 (SW480) | H1299 LD50 (H1299) | PC3 LD50 (PC3) | LD50 MCF7 (MCF7) | LD50 BMKC (BMKC) | HeLaS3 LD50 (HeLaS3) | MCF7 LD50 [11] | Active agent LD50 on MCF7 cells: Total conc. [11] | Active agent LD50 on MCF7 cells: Peptide conc. [11] | Active agent LD50 on MCF7 cells: Tamox. conc. [11] | HC50 at 1 h (in vitro [9]; [15]) | CC50 at 24 h (in vitro [5]; [16]) | CC50 [12] | MCF7 LD50 (MCF7) | further results
FAKLLAKLAKKIL-NH2 [P125] | 90 µg/mL | 90 µg/mL | 50 µg/mL | 100 µg/mL | 10 µg/mL | 125 µg/mL | 76 µg/mL | 145 µg/mL | 90 µg/mL | 220 µg/mL | 220 µg/mL |  |  |  |  |  |  |  |  | activity against clinical tobramycin resistant strain ([1]; strain 960890198-3c): greater activity against clinical tobramycin resistant strain 960890198-3c; activity against tobramycin resistant versus tobramycin sensitive Pseudomonas ([2]; ATCC 13096 (tr) compared with ATCC 27853 (ts)): greater activity against tobramycin resistant (tr) Pseudomonas ATCC 13096 than against tobramycin sensitive (ts) Pseudomonas ATCC 27853; activity against tr Pseudomonas 13096 ([2]; tobramycin resistant strain, Table 46): 4; activity against ts Pseudomonas 27853 ([3]; Table 46): 31; LD50 [4]: > (> indicates greater than 1000)
FAKALAKLAKKLL-NH2 [P92] | 43 µg/mL | 43 µg/mL | 50 µg/mL | 5 µg/mL | 5 µg/mL | 51 µg/mL | 25 µg/mL | 83 µg/mL | 23 µg/mL | 46 µg/mL | 670 µg/mL |  |  |  |  |  |  |  |  | activity against tr Pseudomonas 960890198-3c ([1]; clinical tobramycin resistant strain, Table 47): 50; activity against ts Pseudomonas 27853 ([3]; Table 47): 63; HC50 at 1 h (in vitro [9]; [14]): 300 µg/mL
KWKLFKKKTKLFKKFAKKLAKKL-OH [P81] | 8 µg/mL | 8 µg/mL | > (> indicates greater than 200 μg/mL) | > (> indicates greater than 200 μg/mL) | 10 µg/mL | 13 µg/mL | 22 µg/mL | 170 µg/mL | 63 µg/mL | 12 µg/mL | 19 µg/mL |  |  |  |  |  |  |  |  | HC50 at 1 h (in vitro [9]; [14]): 8 µg/mL; MIC 30 min treatment (Pseudomonas aeruginosa; first of two columns): 20 µg/mL; MIC 30 min treatment (Pseudomonas aeruginosa; second of two columns): 20 µg/mL; MIC 2 hr treatment (Pseudomonas aeruginosa; first of two columns): 20 µg/mL; MIC 2 hr treatment (Pseudomonas aeruginosa; second of two columns): 20 µg/mL; Solubility [10]: Precipitated; MIC Cm-comb. (P. aeruginosa H374; MIC of chloramphenicol with peptide at ¼ MIC): 16 µg/mL; MIC Nal-comb. (P. aeruginosa H374; MIC of nalidixic acid with peptide at ¼ MIC): 5000 µg/mL; FIC Index (P. aeruginosa H374; chloramphenicol + peptide at ¼ MIC): 1.25; FIC Index (P. aeruginosa H374; nalidixic acid + peptide at ¼ MIC, FIC=0.25+MIC comb/MIC alone): 1.25; MIC Nal-comb. (P. aeruginosa): 624 µg/mL; FIC Index (P. aeruginosa H774): 1.25
KLAKKLAKLAKLAKAL-OH [121 (160)] |  |  |  |  |  |  |  |  |  |  |  | 240 µg/mL | 14.7 µg/mL | 11 µg/mL | 3.7 µg/mL | > 1000 µg/mL | 700 µg/mL | 900 µg/mL | 240 µg/mL | 
FALALKALKKAL-NH2 [106 (144)] |  |  |  |  |  |  |  |  |  |  |  | 310 µg/mL | 42.7 µg/mL | 35 µg/mL | 7.7 µg/mL | 600 µg/mL | 740 µg/mL | 320 µg/mL | 310 µg/mL | 
FAKKLAKKLKKLAKKLAK-NH2 [164 (69)] |  |  |  |  |  |  |  |  |  |  |  | 79 µg/mL | 7.1 µg/mL | 2.5 µg/mL | 4.6 µg/mL | 900 µg/mL | 60 µg/mL | 140 µg/mL | 79 µg/mL | 
WALAL-NH2 [145 (184)] |  |  |  |  |  |  |  |  |  |  |  | 240 µg/mL | 14 µg/mL | 10 µg/mL | 4 µg/mL | 850 µg/mL | 1000 µg/mL | 410 µg/mL | 240 µg/mL | 
